According to ChEMBL document CHEMBL3638956, “Tetrahydro-pyrazolo[1,5-a]pyrido-pyrimidines as antagonists of serotonin 5-HT6 receptors, methods for the production and use thereof” (2013):

Molecular target: 5-hydroxytryptamine receptor 6 (Homo sapiens, UniProt P50406)
Assay: Competitive Binding Assay: Activity test of serotonin 5-HT6 receptor antagonists of the general formulas 1, 2 in the setting of competitive binding to serotonin 5-HT6 receptors.

Sequence of 5-hydroxytryptamine receptor 6 (P50406 whole entry): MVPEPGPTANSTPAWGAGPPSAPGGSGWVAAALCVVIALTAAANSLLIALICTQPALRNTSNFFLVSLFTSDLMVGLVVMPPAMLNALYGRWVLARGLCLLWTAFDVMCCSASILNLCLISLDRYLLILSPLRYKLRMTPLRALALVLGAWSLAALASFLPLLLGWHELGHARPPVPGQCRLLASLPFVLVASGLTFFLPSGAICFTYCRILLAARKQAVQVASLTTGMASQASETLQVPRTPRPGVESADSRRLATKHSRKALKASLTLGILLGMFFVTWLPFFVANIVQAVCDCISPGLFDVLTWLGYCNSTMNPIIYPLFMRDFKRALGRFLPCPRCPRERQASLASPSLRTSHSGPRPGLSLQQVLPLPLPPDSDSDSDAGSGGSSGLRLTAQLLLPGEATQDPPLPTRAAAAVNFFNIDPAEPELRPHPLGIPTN

| Ki [nM] | IC50 [nM] | SMILES |
| --- | --- | --- |
| 2.14 |  | Cc1nn2c3c(cnc2c1S(=O)(=O)c1ccccc1)CNCC3 |
| 35.7 | 76.9 | CSc1nn2c3c(cnc2c1S(=O)(=O)c1ccccc1)CN(C)CC3 |
| 7.7 | 16.6 | CSc1nn2c3c(c(C)nc2c1S(=O)(=O)c1ccccc1)CNCC3 |
|  | 13 | Cc1nn2c3c(cnc2c1S(=O)(=O)c1ccccc1)CN(C)CC3 |
